# Data from patent US8987193B2, “Nisin derivatives and the use thereof” (University College Cork—National University of Ireland, Cork, priority 2008, dated 2015).
# “Also recorded” adds a separate entry of the source. Ends that are not written are not given here.
# How the values were obtained:
# [1] = test system: C. sporogenes CBC5; experiment: Deferred antagonism assay; type: cell-based, Clostridium sporogenes; design: key: + = Enhanced bioactivity relative to control; − = Bioactivity equal to or less than control; NA = no activity evident; conditions: producing strain
# [2] = test system: Staph. aureus DPC5245; experiment: Deferred antagonism assay; type: cell-based; conditions: producing strain; diameter of zone minus 5 mm; average of duplicates; St. aureus DPC5245
# Experimental: (§1) Deferred antagonism assays were performed by replicating strains on GM17 or GM17 x-gal agar plates and allowing them to grow overnight before overlaying with either GM17/BHI/TS/MH agar (0.75% w/v agar) seeded with the appropriate indicator strain. Zone size was calculated as the diameter of the zone of clearing minus the diameter of bacterial growth (5 mm) For higher throughput screening of N20PXX, XM21VX, XXK22T and XXX banks deferred antagonism assays were performed by replicating strains using a 96 pin replicator (Boekel) or spotting 5 μl of a fresh overnight culture on GM17 agar plates and allowing them to grow overnight. […] Additional sets of indicators were employed to further assess/reassess the bioactivity of a number of strains. […] For well-diffusion assays molten agar was cooled to 48° C. and seeded with the appropriate indicator strain. The inoculated medium was rapidly transferred into sterile Petri plates in 50 ml volumes, allowed to solidify and dried. Wells (4.6 mm in diameter) were then made in the seeded plates. Purified nisin and mutant nisins were resuspended in 0.005% acetic acid, serially diluted, 50 μl volumes were dispensed into the aforementioned wells and the plates incubated at 37° C. overnight. Bioactivity was expressed as arbitrary units/ml (AU/ml) and calculated as the reciprocal of the highest dilution that gave a definite zone multiplied by the conversion factor (i.e. 20 when 50 μl was used) (Ryan et al., 1996).
# (§2) As a consequence of the enhanced activities of K22T and K22S, a more in-depth investigation of this region was carried out. Saturation mutagenesis was undertaken to create a bank of nisin A hinge derivatives containing the vast majority of possible amino acid substitutions for each position. Although pPTPL was used successfully for random mutagenesis, its relatively large size of approx 10.5 kb was considered unsuitable for the complete plasmid PCR amplification approach utilized for saturation mutagenesis. A smaller (approx 6 kb) E. coli-L. lactis shuttle vector pCI372 was considered to be potentially more useful. Its suitability with respect to the in trans expression of nisA was confirmed by the ability of pDFO5 to restore the nisin positive phenotype. Saturation mutagenesis was performed on each codon using pDF05 and oligonucleotides (Table 5) that replace the specific codon with a NNK triplet, potentially encoding all 20 standard amino acids. Following complete plasmid amplification and introduction into the intermediate Top10 host, sequence analysis of a pooled bank of pDF05 derivatives confirmed randomization. Introduction of these variants into L. lactis NZ9800 allowed the expression of mutant nisin A peptides for further analysis. […] 46 residue conversions were isolated. All strains, regardless of bioactivity, were assessed with a view to comprehensively assessing the consequences of each individual hinge alteration.
# (§3) Values are an average of duplicate experiments and represent zone size (diameter of zone minus diameter of bacterial growth (i.e. 5 mm) relative to that of the NZ9800 pCI372nisA control. X=Mutants not identified.
# [3] = test system: Strep. agalactiae ATCC13813; experiment: Deferred antagonism assay; type: cell-based; conditions: producing strain, diameter of zone minus 5 mm, average of duplicates
# Experimental: as §1, §2, §3
# [4] = test system: Staph. aureus ST528 (MRSA); experiment: Deferred antagonism assay; type: cell-based; conditions: producing strain, diameter of zone minus diameter of bacterial growth (5 mm), average of duplicates
# Experimental: as §1, §2, §3
# [5] = test system: L. monocytogenes CBC2; experiment: Deferred antagonism assay; type: cell-based, Listeria monocytogenes; design: key: + = Enhanced bioactivity relative to control; − = Bioactivity equal to or less than control; NA = no activity evident; conditions: producing strain; L. mono CBC2
# Method in brief: (§4)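 Producer strains replicated on GM17 or GM17 x-gal agar, grown overnight, then overlaid with 0.75% agar seeded with indicator strain. Zone size = diameter of clearing minus 5 mm growth diameter. Purified nisins tested by well diffusion at 37° C overnight; activity in AU/ml from reciprocal of highest active dilution × 20.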
# [6] = test system: L. monocytogenes CBC1; experiment: Deferred antagonism assay; type: cell-based, Listeria monocytogenes; design: key: + = Enhanced bioactivity relative to control; − = Bioactivity equal to or less than control; NA = no activity evident; conditions: producing strain; L. mono CBC1
# Method in brief: as §4
# [7] = test system: L. monocytogenes CBC3; experiment: Deferred antagonism assay; type: cell-based, Listeria monocytogenes; design: key: + = Enhanced bioactivity relative to control; − = Bioactivity equal to or less than control; NA = no activity evident; conditions: producing strain; L. mono CBC3
# Method in brief: as §4
# [8] = test system: S. aureus CBC4; experiment: Deferred antagonism assay; type: cell-based; design: key: + = Enhanced bioactivity relative to control; − = Bioactivity equal to or less than control; NA = no activity evident; conditions: producing strain
# Method in brief: as §4
# [9] = test system: L. lactis CBC8; experiment: Deferred antagonism assay; type: cell-based; design: key: + = Enhanced bioactivity relative to control; − = Bioactivity equal to or less than control; NA = no activity evident; conditions: producing strain
# Method in brief: as §4
# [10] = test system: L. lactis CBC7; experiment: Deferred antagonism assay; type: cell-based; design: key: + = Enhanced bioactivity relative to control; − = Bioactivity equal to or less than control; NA = no activity evident; conditions: producing strain
# Method in brief: as §4
# [11] = test system: L. plantarum CBC6; experiment: Deferred antagonism assay; type: cell-based, Lactobacillus plantarum; design: key: + = Enhanced bioactivity relative to control; − = Bioactivity equal to or less than control; NA = no activity evident; conditions: producing strain
# Method in brief: as §4
# [12] = test system: indicator strains; experiment: Deferred antagonism assays, various indicator strains (summary); type: cell-based; conditions: for bioactivity of the producing strain, in words: in general / against the strains tested; for Strain(s) against which the derivative (producing strain) displays enhanced bioactivity: relative to nisin A-producing control, value = strains listed
# Method in brief: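 Producer strains were replicated on GM17 or GM17 x-gal agar, grown overnight, then overlaid with GM17, BHI, TS or MH soft agar (0.75% w/v) seeded with the indicator strain. Zone size was taken as the clearing diameter minus the diameter of bacterial growth (5 mm).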
substance,measurement,setting,value
"K22F: nisin A derivative, hinge substitution K22F (ITSISLCTPGCKTGALMGCNMFTATCHCSIHVSK; cysteine pairing not given here; also: lantibiotic nisin-A; UniProt P13068 24-57, looked up, variant K22F)",Bioactivity relative to control,[1],−
same,zone size relative to that of the NZ9800 pCI372nisA control,[2],56%
same,zone size relative to that of the NZ9800 pCI372nisA control,[3],57%
same,zone size relative to that of the NZ9800 pCI372nisA control,[4],29%
same,Bioactivity relative to control,[5],−
same,Bioactivity relative to control,[6],−
same,Bioactivity relative to control,[7],−
same,Bioactivity relative to control,[8],−
same,Bioactivity relative to control,[9],−
same,Bioactivity relative to control,[10],−
same,Bioactivity relative to control,[11],−
"K22H: nisin A derivative, hinge substitution K22H (ITSISLCTPGCKTGALMGCNMHTATCHCSIHVSK; cysteine pairing not given here; also: lantibiotic nisin-A; UniProt P13068 24-57, looked up, variant K22H)",Bioactivity relative to control,[1],−
same,zone size relative to that of the NZ9800 pCI372nisA control,[2],97%
same,zone size relative to that of the NZ9800 pCI372nisA control,[3],104%
same,zone size relative to that of the NZ9800 pCI372nisA control,[4],97%
same,Bioactivity relative to control,[5],−
same,Bioactivity relative to control,[6],−
same,Bioactivity relative to control,[7],−
same,Bioactivity relative to control,[8],−
same,Bioactivity relative to control,[9],−
same,Bioactivity relative to control,[10],−
same,Bioactivity relative to control,[11],−
"M21Q: nisin A derivative, hinge substitution M21Q (ITSISLCTPGCKTGALMGCNQKTATCHCSIHVSK; cysteine pairing not given here; also: lantibiotic nisin-A; UniProt P13068 24-57, looked up, variant M21Q)",zone size relative to that of the NZ9800 pCI372nisA control,[2],94%
same,zone size relative to that of the NZ9800 pCI372nisA control,[3],98%
same,zone size relative to that of the NZ9800 pCI372nisA control,[4],92%
same,"bioactivity of the producing strain, in words",[12],slightly diminished bioactivity
"M21R: nisin A derivative, hinge substitution M21R (ITSISLCTPGCKTGALMGCNRKTATCHCSIHVSK; cysteine pairing not given here; also: lantibiotic nisin-A; UniProt P13068 24-57, looked up, variant M21R)",zone size relative to that of the NZ9800 pCI372nisA control,[2],61%
same,zone size relative to that of the NZ9800 pCI372nisA control,[3],66%
same,zone size relative to that of the NZ9800 pCI372nisA control,[4],56.5%
same,"bioactivity of the producing strain, in words",[12],greatly reduced bioactivities
"N20D: nisin A derivative, hinge substitution N20D (ITSISLCTPGCKTGALMGCDMKTATCHCSIHVSK; cysteine pairing not given here; also: lantibiotic nisin-A; UniProt P13068 24-57, looked up, variant N20D)",zone size relative to that of the NZ9800 pCI372nisA control,[2],0%
same,zone size relative to that of the NZ9800 pCI372nisA control,[3],0%
same,zone size relative to that of the NZ9800 pCI372nisA control,[4],0%
same,"bioactivity of the producing strain, in words",[12],devoid of bioactivity
"N20I: nisin A derivative, hinge substitution N20I (ITSISLCTPGCKTGALMGCIMKTATCHCSIHVSK; cysteine pairing not given here; also: lantibiotic nisin-A; UniProt P13068 24-57, looked up, variant N20I)",Bioactivity relative to control,[1],−
same,zone size relative to that of the NZ9800 pCI372nisA control,[2],49%
same,zone size relative to that of the NZ9800 pCI372nisA control,[3],61%
same,"bioactivity of the producing strain, in words",[12],retention of relatively high levels of bioactivity
same,Bioactivity relative to control,[5],−
same,Bioactivity relative to control,[6],−
same,Bioactivity relative to control,[7],−
same,Bioactivity relative to control,[8],−
same,Bioactivity relative to control,[9],−
same,Bioactivity relative to control,[10],−
same,Bioactivity relative to control,[11],−
"N20W: nisin A derivative, hinge substitution N20W (ITSISLCTPGCKTGALMGCWMKTATCHCSIHVSK; cysteine pairing not given here; also: lantibiotic nisin-A; UniProt P13068 24-57, looked up, variant N20W)",Bioactivity relative to control,[1],−
same,zone size relative to that of the NZ9800 pCI372nisA control,[3],0%
same,zone size relative to that of the NZ9800 pCI372nisA control,[4],5.4%
same,Bioactivity relative to control,[5],−
same,Bioactivity relative to control,[6],−
same,Bioactivity relative to control,[7],−
same,Bioactivity relative to control,[8],−
same,Bioactivity relative to control,[9],−
same,Bioactivity relative to control,[10],−
same,Bioactivity relative to control,[11],−
"NisinA M21Y (ITSISLCTPGCKTGALMGCNYKTATCHCSIHVSK; not fully specified; also: lantibiotic: lanthionine rings and dehydro residues not placed; UniProt P13068 24-57, looked up, variant M21Y) [nisin A derivative, hinge substitution M21Y]",Bioactivity relative to control,[1],+
same,zone size relative to that of the NZ9800 pCI372nisA control,[3],65%
same,Strain(s) against which the derivative (producing strain) displays enhanced bioactivity,[12],"L. monocytogenes CBC2 and CBC3 as well as Staph. aureus CBC4, C. sporogenes CBC5 and L. lactis CBC7; also recorded: L. monocytogenes CBC2, CBC3, S. aureus CBC4, C. sporogenes CBC5 and L. lactis 7"
same,Bioactivity relative to control,[5],+
same,Bioactivity relative to control,[6],−
same,Bioactivity relative to control,[7],+
same,Bioactivity relative to control,[8],+
same,Bioactivity relative to control,[9],−
same,Bioactivity relative to control,[10],+
same,Bioactivity relative to control,[11],−
"NisinA N20T (ITSISLCTPGCKTGALMGCTMKTATCHCSIHVSK; not fully specified; also: lantibiotic nisin: dehydrated residues and thioether rings not placed; UniProt P13068 24-57, looked up, variant N20T) [nisin A derivative, hinge substitution N20T]",Bioactivity relative to control,[1],+
same,zone size relative to that of the NZ9800 pCI372nisA control,[2],90%
same,zone size relative to that of the NZ9800 pCI372nisA control,[4],79%
same,Strain(s) against which the derivative (producing strain) displays enhanced bioactivity,[12],C. sporogenes CBC5
same,Bioactivity relative to control,[5],−
same,Bioactivity relative to control,[6],−
same,Bioactivity relative to control,[7],−
same,Bioactivity relative to control,[8],−
same,Bioactivity relative to control,[9],−
same,Bioactivity relative to control,[10],−
same,Bioactivity relative to control,[11],−
